From patent US10278954B2, “Method of treating a CNS disorder using a water-soluble histone deacetylase inhibitor” (priority 2016, dated 2019)

Assays:
[1] = tested on: synaptophysin; assay: Synaptophysin ELISA of protein isolated from rat brain; assay type: in vivo; conditions: 21 days after infusion; 1 way ANOVA p>0.05
Experimental: A) Immunofluorescent microscopy of fixed rat brain for neurons (NeuN) and glia (GFAP) 21 days after acute striatal infusion of 5 μl of either aCSF (control), F127-aCSF or F127-PAN. B) Synaptophysin ELISA of protein isolated from rat brain 21 days after infusion comparing F127-aCSF, F127-PAN and Panobinostat in DMSO against aCSF and untreated controls. […] (1 way ANOVA p>0.05).

[2] = tested on: SF8628 glioma cell line; assay: MTT assay, SF8628; assay type: cell-based, human
Experimental: (§1) Two independent glioma cell lines (A) SF7761 and (B) SF8628 were dosed with sodium valproate for 72 h, then subjected to an MTT assay to assess the effect of the drug on proliferation of glioma cells. Results are expressed as a % relative to untreated control. […] Two glioma cell lines (A) SF7761 and (B) SF8628 were dosed with sodium valproate for 72 h, followed by 6 h of carboplatin, after which, the drug was washed out and given fresh sodium valproate. Proliferation was assessed by MTT assay, and results expressed as a % relative to the untreated control cells.

[3] = tested on: SF7761 glioma cell line; assay: MTT assay, SF7761; assay type: cell-based, human
Experimental: as §1

[4] = tested on: glioma cell line; assay: MTT assay, 6 h sequential dosing on two consecutive days; assay type: cell-based, human
Experimental: One glioma cell line thus far has been tested with (A) 6 h dosing of VPA repeated one two consecutive days, followed by assessment of proliferation by MTT.

[5] = tested on: normal hippocampal neuronal and glial cells; assay: Toxicity in normal hippocampal cultures (B3 tubulin, GFAP staining); assay type: cell-based; conditions: 6 h dosing, assayed 72 h after
Experimental: Normal hippocampal cells were plated onto coverslips and grown for 72 h prior to dosing with sodium valproate to assess the toxicity of the drug against normal neuronal and glial cells. Cells were drugged with sodium valproate for 6 h, after which time the drug was washed off and fresh media added. Cells were further incubated for 72 h prior to fixing and staining with B3 tubulin (neuronal marker) and GFAP (glial cell marker) to determine to the toxicity of sodium valproate.

[6] = pre-conditioning with sodium valproate prior to carboplatin
[7] = sodium valproate 72 h, then 6 h carboplatin

synaptophysin concentration against aCSF and untreated controls [1] | SMILES | cytotoxicity (proliferation, % relative to untreated control) ([2]; 72 h dosing) | combination index (CI) [2, 6] | effect of pre-dosing on cytotoxicity of carboplatin [2, 7] | cytotoxicity (proliferation, % relative to untreated control) ([3]; 72 h dosing) | combination index (CI) [3, 6] | effect of pre-dosing on cytotoxicity of carboplatin [3, 7] | cell viability, % relative to control ([4]; 6 h dosing on two consecutive days) | cell viability, combined dosing with carboplatin ([4]; carboplatin and sodium valproate 6 h on two consecutive days) | glial toxicity (GFAP) ([5]; 20 mM) | neuronal toxicity (B3 tubulin) [5]
No significant difference detected | Cc1[nH]c2ccccc2c1CCNCc1ccc(/C=C/C(=O)NO)cc1 [Panobinostat in DMSO, panobinostat] | – | – | – | – | – | – | – | – | – | –
– | CCCC(CCC)C(=O)[O-].[Na+] [sodium valproate] | causes cytotoxicity to glioma cells in a dose dependent manner | below 1 | potentiates the cytotoxicity of carboplatin | causes cytotoxicity to glioma cells in a dose dependent manner | below 1 | potentiates the cytotoxicity of carboplatin | dose dependent decrease in cell viability | greater decrease in cell viability compared with carboplatin alone | Some toxicity | minimal neuronal toxicity
